Data on one compound can be found in PMC10823733, “Promising antibacterial efficacy of arenicin peptides against the emerging opportunistic pathogen Mycobacterium abscessus” (Journal of Biomedical Science, 2024).

The test system of one assay is M. abscessus R. Description: Induction of resistance assay. The assay is classed as cell-based, Mycobacterium abscessus. Particulars: after 20–30 days of exposure. On the procedure:
(§1) Induction of bacterial resistance by Ar-1 was achieved by exposure of M. abscessus S and R to Ar-1 or to the control antibiotic clarithromycin (CLR) for 42 consecutive days, and with repeated broth microdilution susceptibility testing and subsequent MIC determination. After each MIC determination, the well containing the highest concentration of Ar-1 or CLR that allows bacterial growth was diluted 1:1000 in 7H9-S^OADC and used as inoculum for the next MIC assay with fresh amounts of Ar-1 or CLR.

In another assay the test system is M. abscessus S. The assay is described as follows: Induction of resistance assay. The assay is classed as cell-based, Mycobacterium abscessus. As to conditions: after 20–30 days of exposure. On the procedure: as §1

As to `CC[C@H]1OC(=O)[C@H](C)[C@@H](O[C@H]2C[C@@](C)(OC)[C@@H](O)[C@H](C)O2)[C@H](C)[C@@H](O[C@@H]2O[C@H](C)C[C@H](N(C)C)[C@H]2O)[C@](C)(OC)C[C@@H](C)C(=O)[C@H](C)[C@@H](O)[C@]1(C)O` [CLR, clarithromycin], the “increase in MIC90 values” in the assay with M. abscessus R and in the assay on M. abscessus S was 32 fold each time.
